Reference: paper PMC3580115 (Journal of natural products, 2012)
Converted amounts (≈) assume the structure as drawn. Like-named read-outs stand apart in the source and are kept apart here.

Columns and labels:
[1] = from bulbs of Z. candida; cited from earlier work
[2] = MTT cytotoxicity assay, panel statement over the five cancer cell lines; type: cell-based, human; conditions: human
[3] = system: five human cancer cell lines; assay: as above; type: cell-based; conditions: for selectivity index compared to the Beas-2B cell line: cancer cell lines versus Beas-2B
[4] = comparison in words, Table S1 not available

SMILES: O=C1N[C@H]2[C@H](O)[C@H](O)[C@@H](O)C[C@@H]2c2cc3c(c(O)c21)OCO3 (relative stereo) [trans-dihydronarciclasine]
- IC50 as cytostatic agent [1]: 3.2 ng/mL (≈ 0.0103 µM)

SMILES: CO[C@@H]1C=C[C@@]23c4cc5c(cc4C(O)[N+](C)(C[C@@H]2O)[C@H]3C1)OCO5.[Cl-] (stereo partly drawn) [Compound 1, N-methylhaemanthidine chloride]
- IC50 at 48 h [2]: 0.81 to 13 µM
- selectivity index compared to the Beas-2B cell line [3]: ≤ 10
- cytotoxicity compared with positive control cis-platin [3, 4]: more potent cytotoxicity than one of the positive controls (cis-platin)

SMILES: CO[C@@H]1C=C[C@@]23c4cc5c(cc4CN(C[C@@H]2O)[C@H]3C1)OCO5 [Compound 2, haemanthamin]
- IC50 at 48 h [2]: 0.81 to 13 µM
- selectivity index compared to the Beas-2B cell line [3]: ≤ 10
- cytotoxicity compared with positive control cis-platin [3, 4]: more potent cytotoxicity than one of the positive controls (cis-platin)

SMILES: CO[C@@H]1C=C[C@@]23c4cc5c(cc4C(=O)O[C@H]2CN(C)[C@H]3C1)OCO5 [Compound 3, 3-epimacronine]
- IC50 at 48 h [2]: > 10 µM

SMILES: CO[C@@H]1C=C[C@@]23c4cc5c(cc4CO[C@]2(O)CN(C)[C@H]3C1)OCO5 [Compound 4, (+)-tazettine]
- IC50 at 48 h [2]: > 10 µM

SMILES: CO[C@H]1C=C[C@@]23c4cc5c(cc4CN(C)[C@@H]2C(=O)N(C)[C@H]3C1)OCO5 [Compound 5, N-methyl-5,6-dihydroplicane]
- IC50 at 48 h [2]: > 10 µM

SMILES: COc1cc2c(c(OC)c1OC)[C@@H](OC)O[C@@H]1CC=C3CCN(C)[C@H]3[C@H]21 [Compound 6, O-methylnerinine]
- IC50 at 48 h [2]: > 10 µM

SMILES: CCOC(=O)CCn1c(=O)c2cc3c(cc2c2ccccc21)OCO3 [Compound 7, N-ethoxycarbonylethylcrinasiadine]
- IC50 at 48 h [2]: > 10 µM

SMILES: CCOC(=O)CCCn1c(=O)c2cc3c(cc2c2ccccc21)OCO3 [Compound 8, N-ethoxycarbonylpropylcrinasiadine]
- IC50 at 48 h [2]: > 10 µM

SMILES: O=c1c2cc3c(cc2c2ccccc2n1CCc1ccccc1)OCO3 [Compound 9, N-phenethylcrinasiadine]
- IC50 at 48 h [2]: 0.81 to 13 µM
- cytotoxicity compared with positive control cis-platin [3]: more potent cytotoxicity than one of the positive controls (cis-platin)
- selectivity index compared to the Beas-2B cell line [3]: ≤ 10

SMILES: CC(C)CCn1c(=O)c2cc3c(cc2c2ccccc21)OCO3 [Compound 10, N-isopentylcrinasiadine]
- IC50 at 48 h [2]: > 10 µM

SMILES: Cn1c(=O)c2cc3c(cc2c2ccccc21)OCO3 [Compound 11, N-methylcrinasiadine]
- IC50 at 48 h [2]: > 10 µM

SMILES: c1ccc2c(c1)ncc1cc3c(cc12)OCO3 [Compound 12, trisphaeridine]
- IC50 at 48 h [2]: > 10 µM

SMILES: CN1Cc2cc3c(cc2-c2ccccc21)OCO3 [Compound 13, 5,6-dihydrobicolorine]
- IC50 at 48 h [2]: > 10 µM

SMILES: O[C@H]1[C@H]2c3cc4c(cc3CN3CCC(=C[C@@H]1O)[C@H]23)OCO4 [Compound 14, lycorine]
- IC50 at 48 h [2]: 0.81 to 13 µM
- selectivity index compared to the Beas-2B cell line [3]: ≤ 10
- cytotoxicity compared with positive control cis-platin [3, 4]: more potent cytotoxicity than one of the positive controls (cis-platin)

SMILES: C/C=C/C=C/C(=O)N1C[C@H](C)NC[C@H]1C [Compound 15, nigragillin]
- IC50 at 48 h [2]: > 10 µM
